Measurements as given in patent US9289430B2, “Compounds and methods for inhibiting phosphate transport” (Ardelyx, Inc., priority 2010, dated 2016).

Experiments:
NaPi2b = experiment: Competition with phosphate: uptake assay repeated at 2.1 vs 0.1 mM phosphate; format: cell-based; conditions: potency for inhibition of NaPi2b at 2.1 vs 0.1 mM phosphate
Text: In certain preferred embodiments, the phosphate transport inhibitors of the present invention are not competitive inhibitors with respect to phosphate of Na/phosphate co-transport. In certain other preferred embodiments, the phosphate transport inhibitors of the invention are non-competitive inhibitors. Non-competitive inhibitors maintain their degree of inhibition irrespective of the local phosphate concentration. This feature is an important aspect in providing an efficient blockade of intestinal transport in postprandial state, where the local concentration of dietary phosphate can attain concentration as high as 10 mM. It is believed that competitive inhibitors are too sensitive to local phosphate concentration and unable to block phosphate uptake following a high phosphorus meal. Various methods are available for determining whether a phosphate transport inhibitor is non-competitive or competitive. For example, a phosphate uptake assay can be performed and the IC50 values for a compound at different phosphate concentrations can be determined (e.g., “Enzyme kinetics”, I. Segel, 1975, John-Wiley & Sons, p. 123). IC50 values for non-competitive inhibitors will remain the same or similar with respect to the phosphate concentration, whereas IC50 values for competitive inhibitors will increase (i.e. lose potency) as phosphate concentration increases.
To ascertain if an inhibitor was competitive for binding with phosphate, the procedure was repeated, but raising the concentration of the substrate in the assay mixture from 0.1 to 2.1 mM phosphate.

[1] = Fecal recovery of orally administered compounds; format: in vivo, Sprague-Dawley rats; conditions: rats, oral gavage, feces 0-48 hr after dosing
Procedure: Quantitative determination of test compound level in feces after oral gavage was performed using the same set of animals used to determine test compound concentration in plasma (Example 30). The animals were kept in metabolic cages and feces were collected from the time of dosing until 48 hr after dosing. Upon collection, feces was dried by lyophilization and ground to a visually homogenous powder. Duplicate samples of ground feces from each individual animal were weighed out and extracted using organic solvent. Extracted samples were then diluted into mobile phase and test compound levels were quantitatively determined by LC-MS/MS analysis as described in “Example 30” except that the standard curve was prepared in a feces matrix. Extraction conditions were not optimized for individual compounds, and thus may represent a minimal level of recovery.

[2] = Determination of compound Cmax and AUC after oral gavage; format: in vivo, Sprague-Dawley rats; conditions: Sprague-Dawley, rat plasma, sampling 0.5-4 h
Procedure: Sprague-Dawley rats were orally gavaged with test article at a nominal dose of 2.5 or 10 mg/kg and blood was collected at 0.5, 1, 2 and 4 h. Blood samples were processed to plasma using K2EDTA as an anticoagulant. Plasma samples were treated with acetonitrile containing an internal standard, precipitated proteins removed by centrifugation. Supernatants were analyzed by LC-MS/MS and compound concentrations were determined by interpolated from a standard curve prepared in plasma. All compounds were orally dosed at the dosage shown, and pharmacokinetic parameters determined

rat NaP2b (SLC34A2) = biological target: T1, rat NaP2b (SLC34A2) (Rattus norvegicus, UniProt Q9JJ09); experiment: NaP2b-mediated Pi transport: 33P phosphate uptake into transfected HEK293 cells; format: cell-based; conditions: 100 uM KH2PO4, PiT-silencing agent; for IC50: read-out: pIC50 range for rat Nap2b (converted)
T1 construct: host or cells: HEK293
T1 sequence (Q9JJ09 1-695): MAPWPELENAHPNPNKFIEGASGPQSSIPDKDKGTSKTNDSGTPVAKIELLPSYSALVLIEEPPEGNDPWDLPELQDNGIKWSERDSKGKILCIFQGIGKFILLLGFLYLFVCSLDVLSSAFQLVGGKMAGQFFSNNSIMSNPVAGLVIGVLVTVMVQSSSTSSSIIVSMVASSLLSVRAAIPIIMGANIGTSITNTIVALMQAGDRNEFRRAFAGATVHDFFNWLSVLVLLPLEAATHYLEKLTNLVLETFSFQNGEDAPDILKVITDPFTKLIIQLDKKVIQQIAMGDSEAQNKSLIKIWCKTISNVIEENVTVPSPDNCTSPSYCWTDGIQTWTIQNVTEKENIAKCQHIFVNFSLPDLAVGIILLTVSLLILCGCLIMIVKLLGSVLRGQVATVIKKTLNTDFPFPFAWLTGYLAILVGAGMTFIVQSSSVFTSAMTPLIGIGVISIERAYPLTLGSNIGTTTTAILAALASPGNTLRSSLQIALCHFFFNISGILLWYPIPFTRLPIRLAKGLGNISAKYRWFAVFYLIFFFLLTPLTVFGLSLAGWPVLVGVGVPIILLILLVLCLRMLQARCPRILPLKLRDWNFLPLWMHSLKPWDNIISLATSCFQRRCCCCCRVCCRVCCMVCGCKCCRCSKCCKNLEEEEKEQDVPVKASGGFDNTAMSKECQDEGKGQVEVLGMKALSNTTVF
Procedure: (§1) Materials. HEK293 cells were obtained from the American Type Culture collection and propagated per their instructions. Expression clones for rat and human NaP2b (SLC34A2) were obtained from Open Biosystems (Catalog numbers MRN1768-9510282, and MHS1010-99823026, respectively). The sequence of the human protein was mutated to insert a threonine after residue 37, and to introduce a N39D mutation.
(§2) Inhibition of Pi Transport. The rate of phosphate (Pi) uptake into HEK293 cells was measured using a modification of the method described by Mohrmann et al. (Mohrmann, I., Mohrmann, M., Biber, J., and Murer, H. (1986) Am. J. Phys. 250(3 Pt 1):G323-30.) Transfected HEK293 cells were treated with a pharmacological agent to minimize endogenous PiT-mediated phosphate transport activity, such that the only remaining sodium-dependent phosphate transport activity is that which was bestowed by introduction of the NaP2b genes.
(§3) Cells were seeded into 96-well plates at 25,000 cells/well and cultured overnight. Lipofectamine 2000 (Invitrogen) was used to introduce the NaP2b cDNA, and the cells were allowed to approach confluence during a second overnight incubation. […] Cells were then overlayed with either choline uptake buffer or sodium uptake buffer (14 mM Tris, 137 mM sodium chloride, 5.4 mM KCl, 2.8 mM CaCl2, 1.2 mM MgSO4, 100 uM KH2PO4, PiT-silencing agent, 1 mg/mL Bovine Serum Albumin, pH 7.4) containing 6-9 uCi/mL ^33P orthophosphoric acid (Perkin Elmer) and test compound. Each compound was tested at twelve concentrations ranging from 0.1 nM to 30 uM. Assays were run in duplicate.
(§4) After incubation for 3-30 minutes at room temperature, assay mixtures were removed, and the cells were washed twice with ice cold stop solution (137 mM sodium chloride, 14 mM Tris, pH 7.4). Cells were lysed by addition of 20 μL 0.1% Tween 80 followed by 100 μL scintillation fluid, and counted using a TopCount (Perkin Elmer).
(§5) pIC50 (the negative log of the IC50) values of the test compounds were calculated using GraphPad Prism.

[3] = Stability in simulated gastric and intestinal fluid; format: in vitro ADME; conditions: 6 hr, 1-20 μM
Procedure: Test compounds were incubated at 1-20 μM in simulated gastric fluid (SGF; standard USP solution with 3 mg/mL pepsin) or simulated intestinal fluid (SIF; standard USP solution with 3 mg/mL pancreatin) for 3 hr or 6 hr. HPLC-UV or HPLC-MS were used to determine test compound levels using peak area %. Results (Table 5) were reported as the percentage of test compound remaining after incubation in a given condition relative to test compound present at t=0 in the same condition.

[4] = test system: Uptake of Phosphate from the Intestine; experiment: In vivo bolus phosphorus challenge; design: species or system Sprague-Dawley rats; conditions: rats on low-phosphorus diet, oral drug dose 30 (unit not given) 15 min before phosphate bolus, serum 30 min post bolus
Procedure: By pretreating animals with a low phosphorus diet followed by the subsequent dosing of a phosphorus bolus, serum phosphorus levels were monitored after 30 minutes as a surrogate for intestinal phosphorus absorption. […] The in vivo bolus phosphorus challenge model used here mimics this model in rats.
Male, 7-week-old Sprague-Dawley rats (Charles-River laboratories international, Hollister, Calif.) were allowed to acclimatize for a minimum of 3 days before switching to a synthetic low-phosphorus diet (TD.85010, Harlan Teklad, Madison, Wis.) which contains 0.1% phosphorus and 0.6% calcium. At day 5, testing compounds or vehicle alone (as indicated) were orally administered at the indicated dose in a volume of 5 ml/kg, followed by a bolus gavage of monobasic sodium phosphate (1 mmol in 1 ml) 15 min after compound dosing. Serum was collected via retroorbital bleeding 30 min post phosphate bolus and phosphate levels were determined utilizing an ACE ALERA blood chemistry analyzer (Alfa Wassermann Diagnostic Technologies, West Caldwell, N.J.).
The extent of inhibition by test compounds on the elevation of serum phosphate levels in response to the bolus of phosphate is shown in Table 3 (data are expressed as % Inhibition, with 6-10 animals per data point). The differences between groups were evaluated by one-way analysis of variance with Dunnett's post hoc tests.

human NaP2b (SLC34A2) = biological target: T2, human NaP2b (SLC34A2) (Homo sapiens, UniProt O95436); experiment: NaP2b-mediated Pi transport: 33P phosphate uptake into transfected HEK293 cells; format: cell-based; conditions: human protein with threonine inserted after residue 37 and N39D, 100 uM KH2PO4, read-out: pIC50 range for human Nap2b (converted)
T2 construct: host or cells: HEK293
T2 sequence (O95436 1-690): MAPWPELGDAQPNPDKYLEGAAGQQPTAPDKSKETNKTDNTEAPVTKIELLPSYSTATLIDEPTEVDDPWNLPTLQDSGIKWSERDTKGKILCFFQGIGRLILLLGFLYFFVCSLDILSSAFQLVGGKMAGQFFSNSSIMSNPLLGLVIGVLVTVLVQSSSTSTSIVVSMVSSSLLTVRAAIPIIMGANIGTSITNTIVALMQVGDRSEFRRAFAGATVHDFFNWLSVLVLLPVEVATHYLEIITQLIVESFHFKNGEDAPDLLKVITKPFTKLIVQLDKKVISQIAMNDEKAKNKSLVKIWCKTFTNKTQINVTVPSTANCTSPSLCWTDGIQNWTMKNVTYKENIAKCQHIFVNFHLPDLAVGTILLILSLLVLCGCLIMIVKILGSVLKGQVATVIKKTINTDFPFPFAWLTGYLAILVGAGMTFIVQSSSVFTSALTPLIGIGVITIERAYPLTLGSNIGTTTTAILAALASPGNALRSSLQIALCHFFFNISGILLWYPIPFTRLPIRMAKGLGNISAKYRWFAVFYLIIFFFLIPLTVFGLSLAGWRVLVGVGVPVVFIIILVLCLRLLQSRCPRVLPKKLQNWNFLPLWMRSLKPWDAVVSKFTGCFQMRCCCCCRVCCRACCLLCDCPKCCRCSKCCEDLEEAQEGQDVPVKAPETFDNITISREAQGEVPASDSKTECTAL
Procedure: as §1, §2, §3, §4, §5

[5] = nominal 10 mg/kg (actual 7.6-11 mg/kg)
[6] = nominal 2.5 mg/kg (actual 1.9 mg/kg)

SMILES | % recovered in feces [1, 5] [%] | IC50 (rat NaP2b (SLC34A2)) [nM] | IC50 (human NaP2b (SLC34A2)) [nM] | other results
O=C(O)CCSCc1cccc(C(=O)Nc2ccc(N3CCCCC3)cc2C(=O)Nc2ccn(-c3cccc(C(F)(F)F)c3)n2)c1 [Example 7, 3-((3-((4-(Piperidin-1-yl)-2-((1-(3-(trifluoromethyl)phenyl)-1H-pyrazol-3-yl)carbamoyl)phenyl)carbamoyl)benzyl)thio)propanoic acid] | 9.5 | 1000 to 7940 | 1000 to 7940 | % Inhibition of Serum P elevation [4]: 49%
CN(CCOCCOCCOCCC(=O)O)Cc1cccc(C(=O)Nc2ccc(N3CCCCC3)cc2C(=O)Nc2ccn(-c3cccc(C(F)(F)F)c3)n2)c1 [Example 17, 2-Methyl-1-(3-((4-(piperidin-1-yl)-2-((1-(3-(trifluoromethyl)phenyl)-1H-pyrazol-3-yl)carbamoyl)phenyl)carbamoyl)phenyl)-5,8,11-trioxa-2-azatetradecan-14-oic acid] | – | 1000 to 7940 | 1000 to 7940 | –
CN(CCN1CCOCC1)C(=O)c1cccc(C(=O)Nc2ccc(N3CCCCC3)cc2C(=O)Nc2nc(-c3cccc(C(F)(F)F)c3)n[nH]2)c1 [Example 1, N1-Methyl-N1-(2-morpholinoethyl)-N3-(4-(piperidin-1-yl)-2-((3-(3-(trifluoromethyl)phenyl)-1H-1,2,4-triazol-5-yl)carbamoyl)phenyl)isophthalamide] | – | < 1000 | < 1000 | –
O=C(O)P(=O)(O)O [PFA, reference compound] | – | – | – | Competitive with respect to Pi? (NaPi2b): Yes; pIC50 range for rat Nap2b (rat NaP2b (SLC34A2)): 2-3

Further lines, with some results ahead:

% recovered in feces [1, 5] [%] | IC50 (rat NaP2b (SLC34A2)) [nM] | IC50 (human NaP2b (SLC34A2)) [nM] | SMILES | other results
60 | 1000 to 7940 | – | O=C(O)c1cccc(SCc2cccc(C(=O)Nc3ccc(N4CCCCC4)cc3C(=O)Nc3ccn(-c4cccc(C(F)(F)F)c4)n3)c2)c1 [Example 18, 3-((3-((4-(Piperidin-1-yl)-2-((1-(3-(trifluoromethyl)phenyl)-1H-pyrazol-3-yl)carbamoyl)phenyl)carbamoyl)benzyl)thio)benzoic acid] | Competitive with respect to Pi? (NaPi2b): No; % recovered in feces ([1]; dosed at 1.9 mg/kg): 12%; AUC [2, 6]: 2130 ng·h/mL; Cmax [2, 6]: 678 ng/mL; AUC [2, 5]: 6050 ng·h/mL; Cmax [2, 5]: 1820 ng/mL
17 | – | – | O=C(O)CCOCCOCCOCCNC(=O)c1cccc(C(=O)Nc2ccc(Cl)cc2C(=O)Nc2ccn(-c3cccc(C(F)(F)F)c3)n2)c1 [Example 25, 1-(3-((4-chloro-2-((1-(3-(trifluoromethyl)phenyl)-1H-pyrazol-3-yl)-carbamoyl)phenyl)carbamoyl)phenyl)-1-oxo-5,8,11-trioxa-2-azatetradecan-14-oic acid] | AUC [2, 5]: < 3 ng·h/mL; % remaining, SGF ([3]; simulated gastric fluid with 3 mg/mL pepsin): 58%; % remaining, SIF ([3]; simulated intestinal fluid with 3 mg/mL pancreatin): 95%
– | < 1000 | < 1000 | O=C(O)Cc1cccc(SCc2cccc(C(=O)Nc3ccc(N4CCCCC4)cc3C(=O)Nc3ccn(-c4cccc(C(F)(F)F)c4)n3)c2)c1 [Example 23, 2-(3-((3-((4-(Piperidin-1-yl)-2-((1-(3-(trifluoromethyl)phenyl)-1H-pyrazol-3-yl)carbamoyl)phenyl)carbamoyl)benzyl)thio)phenyl)acetic acid] | –
